Assay results published in patent US20260072046A1 (priority 2015, published 2026).
Like-named read-outs stand apart in the source and are kept apart here.

Assays:
[1] = LC-MS/MS quantification of drugs in oral fluid of live and post-mortem dogs; conditions: for detected and quantified in the sublingual region (oral fluid): Example 4, post-mortem dog, sublingual area
[2] = LC/MS/MS of muscle tissue homogenate (conventional method); conditions: Example 5, remains of decedent; homogenate muscle tissue:plasma 1:4
[3] = LC-MS/MS quantification of drugs in muscle tissue fluid from remains of a post-mortem individual
[4] = human; for concentration detected in the sublingual region (oral fluid) / concentration detected in the submandibular gland (oral fluid): female
[5] = post-mortem dog SF10049, FIG. 28
[6] = PM50019 001a, liquid leaked from container
[7] = PM50019 001b, fluid expelled by pressing muscle tissue

CC(=O)Nc1ccc(O)cc1 [acetaminophen]
detected and quantified in the sublingual region (oral fluid) [1]: 12.20 ng/mL
concentration in oral fluid [1, 5]: 12.20 ng/mL

CC(N)Cc1ccccc1 (stereo not shown) [amphetamine]
concentration from the muscle tissue homogenate [2]: < 100 ng/g
concentration from the muscle tissue sample (muscle tissue fluid) [3, 6]: 10.4 ng/mL
concentration from the muscle tissue sample (muscle tissue fluid) [3, 7]: 5.7 ng/mL

CCCC(C)(COC(N)=O)COC(=O)NC(C)C (stereo not shown) [carisoprodol]
concentration detected in the sublingual region (oral fluid) [4]: 49.20 ng/mL
concentration detected in the submandibular gland (oral fluid) [4]: 54.38 ng/mL

O=C1CN=C(c2ccccc2Cl)c2cc([N+](=O)[O-])ccc2N1 [clonazepam]
concentration in oral fluid [4]: 0.34 ng/mL

COc1ccc2c3c1O[C@H]1[C@@H](O)C=C[C@H]4[C@@H](C2)N(C)CC[C@@]341 [codeine]
concentration detected in the sublingual region (oral fluid) [4]: 5.64 ng/mL
concentration detected in the submandibular gland (oral fluid) [4]: 0.0 ng/mL
concentration in oral fluid [4]: 4.63 ng/mL

CN(C)CCC=C1c2ccccc2C=Cc2ccccc21 [cyclobenzaprine]
concentration in oral fluid [4]: 4.74 ng/mL

NCC1(CC(=O)O)CCCCC1 [gabapentin]
detected and quantified in the sublingual region (oral fluid) [1]: 205.00 ng/mL
concentration in oral fluid [1, 5]: 205.00 ng/mL

CNC1(c2ccccc2Cl)CCCCC1=O (stereo not shown) [ketamine]
detected and quantified in the sublingual region (oral fluid) [1]: 408.30 ng/mL
concentration in oral fluid ([1]; live dog SF10085, FIG. 21): 598.30 ng/mL
concentration in oral fluid ([1]; live dog SF10086, FIG. 22): 592.10 ng/mL
concentration in oral fluid ([1]; live dog SF10087, FIG. 23): 1914.90 ng/mL
concentration in oral fluid ([1]; live dog SF10088, FIG. 24): 426.20 ng/mL
concentration in oral fluid ([1]; live dog SF10092, FIG. 25): 844.20 ng/mL
concentration in oral fluid [1, 5]: 408.30 ng/mL
concentration in oral fluid ([1]; post-mortem dog SF10093, FIG. 26): 229.50 ng/mL

CN[C@@H](C)Cc1ccccc1 [methamphetamine]
concentration from the muscle tissue homogenate [2]: 448+63 ng/g
concentration in oral fluid ([1]; live dog SF10048, FIG. 27): 16.20 ng/mL
concentration from the muscle tissue sample (muscle tissue fluid) [3, 6]: 113.1 ng/mL
concentration from the muscle tissue sample (muscle tissue fluid) [3, 7]: 46.1 ng/mL

CN1CC[C@]23c4c5ccc(O)c4O[C@H]2[C@@H](O)C=C[C@H]3[C@H]1C5 [morphine]
concentration detected in the sublingual region (oral fluid) [4]: 197.42 ng/mL
concentration detected in the submandibular gland (oral fluid) [4]: 12.34 ng/mL

COc1ccc2c3c1O[C@H]1C(=O)CC[C@@]4(O)[C@@H](C2)N(C)CC[C@]314 [oxycodone]
concentration in oral fluid [4]: 5.53 ng/mL

COc1cccc(C2(O)CCCCC2CN(C)C)c1 (stereo not shown) [tramadol]
detected and quantified in the sublingual region (oral fluid) [1]: 49.70 ng/mL
concentration in oral fluid [1, 5]: 49.70 ng/mL
